Legend:
[1] = system: collagen ɑ1(I) 5′SL mRNA (2AP at G10); test: Fluorescence measurement of the fluorescent ɑ1(I) 5′SL compound with test compound; type: binding, human; conditions: test compound added in micromolar concentrations; FIG. 5 top panel
Excerpt: When the first fluorescent compound has the fluorophore 2AP substituted at the G10 position of the collagen ɑ1(I) 5′ stem loop mRNA and the fluorescence intensity increases, this indicates the first fluorescent compound has bound to LARP6.
(§1) The fluorescence intensity of the 2AP and PC fluorophores depends on their environment in the RNA fold, and the environment changes upon LARP6 or test compound binding to the RNA. The increase in fluorescence is seen if a fluorophore rotates outwards from its position within the RNA. This was seen when LARP6 bound to the fluorescent ɑ1(I) 5′SL compound. The fluorescence decreases if a fluorophore is masked by the bound drug or LARP6.
(§2) Referring to FIG. 5, the fluorescence measurements were performed using epirubicin as the test compound or drug.

[2] = system: collagen ɑ2(I) 5′SL mRNA (PC at C37); test: Fluorescence measurement of the fluorescent ɑ2(I) 5′SL compound with test compound; type: binding, human; conditions: increasing drug concentrations; FIG. 5 bottom panel
Excerpt: When the second fluorescent compound has the fluorophore PC at the C37 position of the collagen ɑ2(I) 5′ stem loop mRNA and the fluorescence intensity decreases when contacted with LARP6, this indicates binding of the second fluorescent compound to LARP6.
as §1, §2

[3] = system: complex of recombinant LA-domain of LARP6 with 5′SL RNA; test: Gel mobility shift assay of LA-domain/5′SL RNA complex; type: binding; conditions: FIG. 6 lanes 4 and 5
Excerpt: FIG. 6 is a gel mobility shift assay showing free RNA (RNA) and complex of LA-domain bound to RNA (RNA/LA). Lane 1 contains RNA only. Lane 2 contains the RNA/LA complex in absence of the test compound. Lanes 3-5 show dissociation of RNA/LA complexes with the test compound.
The inhibitory effect of this test compound on LARP6 binding was directly tested by gel mobility shift experiments, the results of which are in FIG. 6. This assay confirms the formation of a protein/RNA complex by physically separating them from free RNA. Without the test compound, the recombinant LA-domain of LARP6 formed a complex with 5′SL RNA (FIG. 6, lane 2, RNA/LA). […] This proves that the fluorescent 5′SL RNA compounds can be used to identify molecules that interact with 5′SL RNA and that are competitors of LARP6 binding and may be antifibrotic drugs.

[4] = biological target: T1, recombinant LA-domain of LARP6 (Homo sapiens, UniProt Q9BRS8); test: Fluorescence of the fluorescent ɑ1(I) 5′SL compound on LA-domain binding; conditions: saturating amounts of LA-domain vs free compound; p<0.0001; FIG. 3
T1 construct: recombinant LA-domain of LARP6
T1 sequence (Q9BRS8 86-177 limits assumed): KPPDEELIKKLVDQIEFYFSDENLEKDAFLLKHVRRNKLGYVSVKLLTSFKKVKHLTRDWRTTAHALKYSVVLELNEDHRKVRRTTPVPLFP
Procedure: The increase resulted from flipping of the 2AP at the G10 position out of the fold. The increase in intensity of the excitation spectrum (left, measured at 370 nm emission) and the emission spectrum (right, measured at 310 nm excitation) were apparent when increasing concentrations of recombinant LA-domain of LARP6 were added to the sensor. The LA-domain is necessary and sufficient for 5′SL RNA recognition by LARP6 and recapitulates the full size LARP6 binding.
The increase in intensity of fluorescence emission with binding of the LA-domain was quantified by measuring the fluorescence of free fluorescent ɑ1(I) 5′SL compound and the same compound bound with saturating amounts of the LA-domain.
The intensity increased about 2-fold with statistical significance of p<0.0001.

[5] = biological target: T1, recombinant LA-domain of LARP6; test: Fluorescence of the fluorescent ɑ2(I) 5′SL compound on LA-domain binding; conditions: increasing concentrations of recombinant LA-domain; FIG. 4
Excerpt: This compound was less bright because its fluorophore has an emission that is about 7-fold less intense than that of the fluorescent ɑ1(I) 5′SL compound.
(§3) The decrease in the excitation spectrum (left, measured at 450 nm emission) and the emission spectrum (right, measured at 340 nm excitation) with increasing concentrations of recombinant LA-domain is shown in FIG. 5.

LARP6 LA-domain = biological target: T2, LARP6 LA-domain (UniProt Q9BRS8 Q9BRS8:86-177); test: pyrrolo-cytidine fluorescence decreases with increasing LA-domain; conditions: label: pyrrolo-cytidine at position 37; 5' stem-loop
T2 sequence: T1 sequence (Q9BRS8 86-177 limits assumed)
Excerpt: as §3

COc1cccc2c1C(=O)c1c(O)c3c(c(O)c1C2=O)C[C@@](O)(C(=O)CO)C[C@@H]3O[C@H]1C[C@H](N)[C@@H](O)[C@H](C)O1 [epirubicin]
change of fluorescence intensity of the fluorescent ɑ1(I) 5′SL compound [1]: decreased in the concentration dependent manner | change of fluorescence intensity of the fluorescent ɑ2(I) 5′SL compound [2]: decrease in fluorescence with increasing drug concentrations | concentration of test compound at which formation of RNA/LA complex was diminished [3]: > 50 µM

fluorescent ɑ1(I) 5′SL compound: SEQ ID NO: 1 collagen ɑ1(I) 5′SL RNA with G10 nucleotide substituted with 2-amino-purine (2AP) (CCACAAAGAGUCUACAUGUCUAGGGUCUAGACAUGUUCAGCUUUGUGG; G10 replaced by 2-aminopurine; listed as Homo sapiens)
increase in intensity of fluorescent emission on binding of the LA-domain [4]: about 2 fold

fluorescent ɑ2(I) 5′SL compound: SEQ ID NO: 2 collagen ɑ2(I) 5′SL RNA with C37 nucleotide substituted with pyrrolo-cytidine (PC)
fluorescence response to LA-domain binding [5]: decreasing its fluorescence

B1: fluorescent collagen a2(I) 5'SL (ssRNA)
RNA: CACAAGGAGUCUGCAUGUCUAAGUGCUAGACAUGCUCAGCUUUGUG
modifications: C37 substituted with pyrrolo-cytidine
binding result (LARP6 LA-domain): binds

Source: patent US20230313296A1, “USING FLUORESCENT COLLAGEN α 1(I) AND α 2(I) mRNAs TO SCREEN DRUG CANDIDATES” (Florida State University Research Foundation, Inc., priority 2022, published 2023)
